From PubChem BioAssay (NCI)
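GI50 is the concentration that inhibits growth by half. Definition used: TGI = concentration required for complete inhibition of growth.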

Experiments:
Assay in all cases: NCI anticancer screen, dose series, 384-well format
786-0 renal = test system: 786-0 renal
A498 renal = test system: A498 renal
A549 NSCLC = test system: A549 NSCLC
ACHN renal = test system: ACHN renal
BT-549 breast = test system: BT-549 breast
CAKI-1 renal = test system: CAKI-1 renal
CCRF-CEM leukemia = test system: CCRF-CEM leukemia
DU-145 prostate = test system: DU-145 prostate
EKVX NSCLC = test system: EKVX NSCLC
HCT-116 colon = test system: HCT-116 colon
HCT-15 colon = test system: HCT-15 colon
HL-60(TB) leukemia = test system: HL-60(TB) leukemia
HOP-62 NSCLC = test system: HOP-62 NSCLC
HOP-92 NSCLC = test system: HOP-92 NSCLC
HS 578T breast = test system: HS 578T breast
HT29 colon = test system: HT29 colon
IGROV1 ovarian = test system: IGROV1 ovarian
K-562 leukemia = test system: K-562 leukemia
KM12 colon = test system: KM12 colon
LOX IMVI melanoma = test system: LOX IMVI melanoma
M14 melanoma = test system: M14 melanoma
MALME-3M melanoma = test system: MALME-3M melanoma
MCF7 breast = test system: MCF7 breast
MDA-MB-231 breast = test system: MDA-MB-231 breast
MDA-MB-435 melanoma = test system: MDA-MB-435 melanoma
MDA-MB-468 breast = test system: MDA-MB-468 breast
MOLT-4 leukemia = test system: MOLT-4 leukemia
NCI-H226 lung = test system: NCI-H226 lung

SMILES: Cn1nnc2c(C(N)=O)ncn2c1=O
- GI50 ([…]-0 renal): > 100 µM
- TGI (786-0 renal): > 100 µM
- GI50 (A498 renal): > 100 µM
- TGI (A498 renal): > 100 µM
- GI50 (A549 NSCLC): > 100 µM
- TGI (A549 NSCLC): > 100 µM
- GI50 (ACHN renal): > 100 µM
- TGI (ACHN renal): > 100 µM
- GI50 (BT-549 breast): > 100 µM
- TGI (BT-549 breast): > 100 µM
- GI50 (CAKI-1 renal): > 100 µM
- TGI (CAKI-1 renal): > 100 µM
- GI50 (CCRF-CEM leukemia): > 100 µM
- TGI (CCRF-CEM leukemia): > 100 µM
- GI50 (DU-145 prostate): > 100 µM
- TGI (DU-145 prostate): > 100 µM
- GI50 (EKVX NSCLC): > 100 µM
- TGI (EKVX NSCLC): > 100 µM
- GI50 (HCT-116 colon): > 100 µM
- TGI (HCT-116 colon): > 100 µM
- GI50 (HCT-15 colon): > 100 µM
- TGI (HCT-15 colon): > 100 µM
- GI50 (HL-60(TB) leukemia): > 100 µM
- TGI (HL-60(TB) leukemia): > 100 µM
- GI50 (HOP-62 NSCLC): > 100 µM
- TGI (HOP-62 NSCLC): > 100 µM
- GI50 (HOP-92 NSCLC): > 100 µM
- TGI (HOP-92 NSCLC): > 100 µM
- GI50 (HS 578T breast): > 100 µM
- TGI (HS 578T breast): > 100 µM
- GI50 (HT29 colon): > 100 µM
- TGI (HT29 colon): > 100 µM
- GI50 (IGROV1 ovarian): > 100 µM
- TGI (IGROV1 ovarian): > 100 µM
- GI50 (K-562 leukemia): > 100 µM
- TGI (K-562 leukemia): > 100 µM
- GI50 (KM12 colon): > 100 µM
- TGI (KM12 colon): > 100 µM
- GI50 (LOX IMVI melanoma): > 100 µM
- TGI (LOX IMVI melanoma): > 100 µM
- GI50 (M14 melanoma): > 100 µM
- TGI (M14 melanoma): > 100 µM
- GI50 (MALME-3M melanoma): > 100 µM
- TGI (MALME-3M melanoma): > 100 µM
- GI50 (MCF7 breast): > 100 µM
- TGI (MCF7 breast): > 100 µM
- GI50 (MDA-MB-231 breast): > 100 µM
- TGI (MDA-MB-231 breast): > 100 µM
- GI50 (MDA-MB-435 melanoma): > 100 µM
- TGI (MDA-MB-435 melanoma): > 100 µM
- GI50 (MDA-MB-468 breast): > 100 µM
- TGI (MDA-MB-468 breast): > 100 µM
- GI50 (MOLT-4 leukemia): > 100 µM
- TGI (MOLT-4 leukemia): > 100 µM
- GI50 (NCI-H226 lung): > 100 µM
